{"source": "patent US20180111991A1", "about": "“MODULATORS OF ACTIVIN AND METHODS FOR MODULATING IMMUNE RESPONSES AND T FOLLICULAR HELPER CELLS” (LA JOLLA INSTITUTE FOR ALLERGY AND IMMUNOLOGY, priority 2014, published 2018)", "key": {"human naïve CD4 T cells [1]": {"system": "human naïve CD4 T cells", "assay": "CXCL13 ELISA on supernatants of differentiated CD4 T cells", "format": "cell-based", "conditions": "plate bound anti-CD3 and ICOS-L, 5 days", "method": "Unless differently specified, naïve CD4^+ T cells were enriched from PBMCs by magnetic bead negative selection with the Naïve CD4^+ T Cell Isolation Kit (Stem Cell Technologies). Purity (CD4^+CD45RA^+) was 90% or higher. Cells (7.5×10^4 cells/well) were activated by Dynabeads Human T-Activator CD3/CD28 (2 μl/well, Life Technologies) and cultured with recombinant human/mouse/rat activin A (50 ng/ml or 100 ng/ml), recombinant human IL-12 (5 ng/ml), recombinant human TGFβ (1 ng/ml), recombinant human IL-23 (10 ng/ml) or recombinant human IL-35 (10 ng/ml) in the presence of and recombinant human IL-7 (4 ng/ml) in AIM-V medium (Life Technologies). All cytokines were from R&D System and Peprotech. The 14 kDa mature human beta A chain of human activin A shares 100% amino acid sequence identity with bovine, feline, mouse, porcine, and rat beta A. Phenotype was quantified after 3 or 5 days, as specified in the main text of Figure legends. […] For experiments quantifying supernatant CXCL13 concentration, cells were activated by plate-bound anti-human CD3 (5 μg/ml, BD) and ICOS-L (5 μg/ml, recombinant human B7-H2, R&D). CXCL13 concentrations were determined via human CXCL13 DuoSet ELISA (R&D) on supernatants harvested after 5 days of in vitro culture. […]"}, "SMAD2/3 [2]": {"system": "SMAD2/3", "assay": "Analysis of phosphorylated SMAD2/3 in blood naïve CD4 T cells", "format": "cell-based, human", "excerpt": "(§1) Fresh PBMCs and tonsil mononuclear cells were serum-starved over night in AIM-V medium. […] Following stimulation, the cells were fixed in BD Phosflow™ Fix Buffer I (BD Biosciences), then permeabilized using BD Phosflow™ Perm Buffer III (BD Biosciences) following manufacture's instruction."}, "human naïve CD4 T cells [3]": {"system": "human naïve CD4 T cells", "assay": "qPCR / flow cytometry of LIF, PRDM1, SLAMF1, ITGβ7 on day 3 differentiated cells", "format": "cell-based", "conditions": "for PRDM1 (BLIMP1) expression: RNA-seq and qPCR", "excerpt": "FIG. 2A-O: Activin A plays a synergic role with IL-12 and molds the human Tfh gene program. (A-B) Bead purified naïve CD4 T cells from multiple healthy subjects were stimulated by anti CD3/CD28 beads on 96 well plates, in the presence of commercial human recombinant activin A, with or without IL-12. […] A representative donor is shown in (A). Data from 12 donors from 6 independent experiments are shown in (B). […] Data from one experiment representative of two are depicted (n=3). (D) Cells were cultured in vitro with different doses of activin A combined with a fixed amount of IL-12 for 5 days in the presence of anti-activin A mAb MOR8806 (block) or isotype control mAb (isotype). Graphs show mean and SEM from 3 independent experiments (n=8). Dotted lines indicate the average percentages of PD-1^+CXCR5^+ cells induced by IL-12 with isotype control mAb from 8 donors. (E) CCR7 MFI on day 5 in vitro differentiated cells. […] (J) RNA-seq analysis on day 3 in vitro differentiated cells. The “Volcano” plots show the absolute gene expression data set (RPKM) from cells differentiated with activin A and IL-12 versus cells differentiated with beads only. […] (K) Heat-map showing absolute expression (RPKM) of selected Tfh signature genes on cells differentiated with beads only, IL-12, activin A or activin A+IL12. (L and N) Relative expression (2-ΔCt) of LIF and PRDM1 was determined by qPCR. (M and O) SLAMF1 and ITGβ7 expression by flow cytometry. In (L) to (0) all the data were obtained from day 3 in vitro differentiated cells and are from at least 3 or more independent experiments (n=9 or higher). Bars show mean and SEM. * p<0.05, ** p<0.01 and *** p<0.001. RNA was isolated by QIAGEN RNeasy spin columns and reverse-transcribed into cDNA using Superscript II Reverse Transcriptase (Invitrogen). Quantitative real-time PCR of ACTB, LIF, and PRDM1 was performed using the following primers: ACTB forward, [NT], ACTB reverse, [NT] forward, [NT] reverse, [NT]; and PRDM1 forward, [NT], PRDM1 reverse [NT]. Real-time PCR was set up with Applied Biosystem SYBR Green Master Mix."}, "SMAD2/3 [4]": {"system": "SMAD2/3", "assay": "Analysis of phosphorylated SMAD2/3 in tonsil CD4 T cells", "format": "cell-based, human", "conditions": "for P-SMAD induction: activin A", "excerpt": "as §1"}, "[5]": {"system": "rhesus macaque naïve CD4 T cells", "assay": "Non-human primate (NHP) differentiation", "format": "cell-based, macaca mulatta (rhesus macaques)", "conditions": "5 days", "method": "CD4^+ T cells from rhesus macaque PBMCs were enriched using the Non-Human Primate CD4^+ T Cell Isolation Kit (Miltenyi Biotec). Naïve CD4^+ T cells were isolated by FACS sorting as CD4^+CD45RA^+CD95^−CD28^+CCR7^+ cells. Naïve CD4^+ T cells (7.5×10^4 cells/well) were activated by plate-bound anti-human-CD3 and anti-human-CD28 (both at 5 μg/ml, BD) and cultured with recombinant human/mouse/rat activin A (50 ng/ml) and/or recombinant human IL-12 (5 ng/ml) for 5 days. Phenotype was assessed by flow cytometry."}, "[6]": {"system": "autologous memory B cells", "assay": "T-B co-culture, B cell help", "format": "cell-based, human", "conditions": "CD4 T cells differentiated with activin A+IL-12, 7 days with SEB"}}, "note": "“Also recorded” adds a separate entry of the source."}
{"substance": "activin A: commercial recombinant cytokine, homodimer of the INHBA gene product (inhibin beta A)", "values": [{"measurement": "CXCL13 expression / secretion", "setting": "human naïve CD4 T cells [1]", "value": "selectively induces CXCL13 expression"}, {"measurement": "phosphorylation of SMAD2/3", "setting": "SMAD2/3 [2]; blood naïve CD4 T cells, activin A 400 ng/ml", "value": "Phosphorylation of SMAD2/3 in naïve human CD4 T cells in response to activin A was observed"}, {"measurement": "induction of SMAD-independent pathways", "setting": "SMAD2/3 [2]; downstream of activin A, time points analyzed", "value": "No relevant induction of SMAD-independent pathways"}, {"measurement": "LIF and LTα expression", "setting": "human naïve CD4 T cells [3]; CD4 T cells cultured with activin A", "value": "enhanced CD4 T cell expression of LIF and LTα"}, {"measurement": "PRDM1 (BLIMP1) expression", "setting": "human naïve CD4 T cells [3]; day 3 differentiated cells", "value": "express less PRDM1 (Blimp1)"}, {"measurement": "PRDM1 (BLIMP1) expression", "setting": "human naïve CD4 T cells [3]; day 3 differentiated cells, listed as Activin A", "value": "significant downregulation of PRDM1"}, {"measurement": "ITGβ7 expression", "setting": "human naïve CD4 T cells [3]; day 3 differentiated cells, flow cytometry", "value": "downregulated in the presence of activin A"}, {"measurement": "P-SMAD induction", "setting": "SMAD2/3 [4]; tonsil PD-1intCXCR5int mTfh cells", "value": "moderate but specific P-SMAD induction"}, {"measurement": "P-SMAD induction", "setting": "SMAD2/3 [4]; tonsil fully mature GC Tfh cells", "value": "did not"}, {"measurement": "phosphorylation of SMAD2/3", "setting": "SMAD2/3 [4]; tonsil naïve CD4 T cells cultured with activin A", "value": "quickly phosphorylated SMAD2/3"}, {"measurement": "induction of PD-1+CXCR5+ cells", "setting": "[5]", "value": "Potent induction of PD-1^+CXCR5^+ cells; also recorded: potent CXCR5 and PD-1 inducer for both human and non-human primate activated naïve CD4 T cells"}, {"measurement": "B cell help (B cell proliferation and survival, plasmablast differentiation, IgG production)", "setting": "[6]", "value": "functionally competent B cell helpers"}]}
